From patent publication US10639313B2, “Compound for inhibition of delta-5-desaturase (D5D) and treatment of cancer and inflammation” (NDSU Research Foundation, priority 2017, dated 2020)
Several values for one entry are separate records, joined by “and”; a condition that tells them apart may be missing. Identical values can stand only once. Like-named read-outs stand apart in the source and are kept apart here.

Tests used:
[1] = test system: HCA-7/C29 cells; assay: 8-HOA formation from cellular COX-2-catalyzed DGLA peroxidation (GC/MS) in HCA-7/C29; format: cell-based, human; details: 10 μM compound, DGLA-enriched medium, threshold >0.5 μM in 10^6 cells, control 0.33
Experimental: (§1) Colony formation assay was conducted in a total of three human cancer cell lines featuring high levels of COX-2, including HCA-7 (colon cancer), A549 (non-small cell lung cancer), BxPC-3 (pancreatic cancer), upon treatment of iminodibenzyl (10 μM). GC/MS was used to measure 8-HOA formation as described elsewhere.

[2] = target: T1, D5D (Rattus norvegicus, UniProt Q920R3); assay: Rat liver microsomal assay, conversion of DGLA to AA by D5D; format: biochemical
T1 construct: Rat liver microsomal assay was conducted
T1 sequence (Q920R3 whole entry): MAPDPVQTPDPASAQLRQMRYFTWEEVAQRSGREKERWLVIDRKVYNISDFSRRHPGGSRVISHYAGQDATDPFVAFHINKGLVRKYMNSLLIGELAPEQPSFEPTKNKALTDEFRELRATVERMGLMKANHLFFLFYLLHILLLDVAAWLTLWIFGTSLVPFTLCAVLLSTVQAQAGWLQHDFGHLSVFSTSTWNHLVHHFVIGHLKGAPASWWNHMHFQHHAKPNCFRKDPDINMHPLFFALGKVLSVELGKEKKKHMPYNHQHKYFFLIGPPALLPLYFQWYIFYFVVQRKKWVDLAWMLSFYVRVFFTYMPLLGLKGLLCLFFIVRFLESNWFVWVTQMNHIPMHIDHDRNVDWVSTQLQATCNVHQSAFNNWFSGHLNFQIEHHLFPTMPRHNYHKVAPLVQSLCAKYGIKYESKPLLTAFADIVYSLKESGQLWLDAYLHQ

[3] = test system: A549 xenograft tumor; assay: Xenograft tumor model, nude mice bearing A549; format: in vivo; details: for Tumor Growth Reduction % (vs. Control) / [8-HOA]: A549 (printed A459) tumor, every day, 4-week, DGLA 5 mg/mouse oral, iminodibenzyl 15 mg/kg i.p.; for [8-HOA]: control 0.02
Experimental: About two million of selected cancer cells, suspended in 50 μL of PBS, were implanted into hind flank of nude mice. Feeding with standard diet for two weeks after the cell implantation (to allow tumors reach the certain size), mice were then placed into the treatment groups. Twenty mice were randomly divided to four experimental groups (vehicle control, DGLA, […] inhibitor, and DGLA+D5D inhibitor combination) in each treatment regime to assess their anti-tumor responses. Two treatment regimes (e.g., treatment applied on every other day or every day up to 4-week) were assessed for their anti-tumor responses in HAC-7 and A459 tumor models. Every day treatment plan was listed in FIG. 9 as xenograft models and treatment example. Tumor growth was monitored twice a week using a digital caliper as well as via ultrasound image system for treatment outcome. Tumor volume was calculated: V=L×W2/2. At the endpoint (4-week treatment), the mice were euthanized, and the tumor tissues were collected, weighted, conducted for other analysis. Tumor Growth Reduction Rate (%, Tables 5, 7) in each experiment after 4-week treatment was used to assess their associated anti-tumor responses: […]

[4] = test system: Lewis Lung Carcinoma Cells (LLC); assay: Lewis Lung Carcinoma primary tumor growth and metastatic lung tumor formation; format: in vivo, C57/B6 mice; details: for Primary Tumor size (mm^3) / 8-HOA (μM) in Blood / Reduced Tumor Growth vs. V.C.: dose every day; for Primary Tumor size (mm^3) / Reduced Tumor Growth vs. V.C.: DGLA 5 mg/mouse, iminodibenzyl i.p. 15 mg/kg; for 8-HOA (μM) in Blood: vehicle 0.015; for Reduced Tumor Growth vs. V.C.: primary tumor; for mice that developed metastatic lung tumor: four-week treatment, Day 28 (combination up to Day 31)
Experimental: One million Lewis Lung Carcinoma Cells (LLC,), suspended in 50 μL of PBS, were implanted into front/hind flanks (0.5 million each) of C57/B6 mice. A total of twenty […] mice were divided to four groups: six in vehicle control, six in DGLA+iminodibenzyl combination, three in DGLA (oral), and five in iminodibenzyl (i.p.) group. Every day treatment regimen was started one-week after LLC cells implanted into mice blank. Primary tumor growth was monitored twice a week using a digital caliper as well as via ultrasound image system for treatment outcome. Tumor volume was calculated: […] Tumor Growth Reduction Rate (%, Table 8) in each experiment after 4-week treatment was used to assess their associated anti-tumor responses: […]

[5] = test system: HCA-7 xenograft tumor; assay: Xenograft tumor model, nude mice bearing HCA-7; format: in vivo; details: HCA-7 tumor; for [8-HOA]: control 0.03
Experimental: About two million of selected cancer cells, suspended in 50 μL of PBS, were implanted into hind flank of nude mice. Feeding with standard diet for two weeks after the cell implantation (to allow tumors reach the certain size), mice were then placed into the treatment groups. Twenty mice were randomly divided to four experimental groups (vehicle control, DGLA, […] inhibitor, and DGLA+D5D inhibitor combination) in each treatment regime to assess their anti-tumor responses. Two treatment regimes (e.g., treatment applied on every other day or every day up to 4-week) were assessed for their anti-tumor responses in HAC-7 and A459 tumor models. Every day treatment plan was listed in FIG. 9 as xenograft models and treatment example. Tumor growth was monitored twice a week using a digital caliper as well as via ultrasound image system for treatment outcome. Tumor volume was calculated: V=L×W2/2. At the endpoint (4-week treatment), the mice were euthanized, and the tumor tissues were collected, weighted, conducted for other analysis.

[6] = test system: BxPC-3 xenograft tumor; assay: Xenograft tumor model, nude mice bearing BxPC-3; format: in vivo; details: BxPC-3 tumor, twice/week up to 4-week, gemcitabine 30 mg/kg, DGLA 8 mg/mouse, iminodibenzyl 25 mg/kg
[7] = test system: HCA-7 (colon cancer); assay: Colony formation assay / cell survival, HCA-7; format: cell-based, human; details: for Cell Survival Rate: HCA-7/C29, DGLA-enriched media, control 100%
Experimental: as §1

[8] = test system: BxPC-3 (pancreatic cancer); assay: Colony formation assay / cell survival, BxPC-3; format: cell-based, human; details: 10 μM, DGLA-enriched media, control 100%
Experimental: as §1

[9] = test system: BxPC-3 cells; assay: 8-HOA formation from COX-2-catalyzed DGLA peroxidation (GC/MS) in BxPC-3; format: cell-based, human; details: 10 μM, DGLA-enriched media, control 0.26
Experimental: as §1

[10] = test system: A549 (non-small cell lung cancer); assay: Colony formation assay / cell survival, A549; format: cell-based, human; details: A549 (A-495 [sic]), 10 μM, DGLA-enriched media, control 100%
Experimental: as §1

[11] = test system: A549 cells; assay: 8-HOA formation from COX-2-catalyzed DGLA peroxidation (GC/MS) in A549; format: cell-based, human; details: A549 (A-495 [sic]) cells; 10 μM; DGLA-enriched media; control 0.29
Experimental: as §1

[12] = every day, 4-week, DGLA 5 mg/mouse oral, iminodibenzyl 15 mg/kg i.p.
[13] = inhibition of D5D conversion of DGLA to AA, rat liver microsomes, read-out: IC50 (rat microsome)

Structure (SMILES): CC(C)CCOc1ccc(N)cc1 [CP-24879, reference compound]
- [8-HOA] (HCA-7 cells) [1]: 0.42 µM

Structure (SMILES): COc1cc(/C=C/C(=O)CC(=O)/C=C/c2ccc(O)c(OC)c2)ccc1O [Cucurmin, curcumin, reference compound]
- [8-HOA] (HCA-7 cells) [1]: 0.43 µM
- IC50 [2]: 148 nM

Structure (SMILES): CCCCC/C=C\C/C=C\C/C=C\CCCCCCC(=O)O [DGLA, dihomo-γ-linolenic acid]
- Tumor Growth Reduction % (vs. Control) [3]: did not deliver any inhibitory effect on tumor growth
- [8-HOA] [3]: 0.22 µg/g
- Primary Tumor size (mm^3) ([4]; Day 14, vehicle 128): 106 mm^3
- Primary Tumor size (mm^3) ([4]; Day 21, vehicle 916): 908 mm^3
- Primary Tumor size (mm^3) ([4]; Day 28, vehicle 2956): 2631 mm^3
- 8-HOA (μM) in Blood ([4]; Day 28): 0.31 µM
- Reduced Tumor Growth vs. V.C. ([4]; Day 28): unable to inhibit primary tumor growth
- mice that developed metastatic lung tumor [4]: All three mice in this group developed lung tumors
- Tumor Growth Reduction % (vs. Control) [5, 12]: did not deliver any inhibitory effect on tumor growth
- [8-HOA] [5, 12]: 0.27 µg/g

Structure (SMILES): Nc1ccn([C@@H]2O[C@H](CO)[C@@H](O)C2(F)F)c(=O)n1 [Gemcitabine]
- Tumor Growth Reduction % (vs. Control) [6]: 24%
- Tumor Growth Reduction % (vs. Control) ([6]; listed as gemcitabine): ~24%

Structure (SMILES): c1ccc2c(c1)CCc1ccccc1N2 [Iminodibenzyl, 10,11-dihydro-5H-dibenz[b,f]azepine]
- Tumor Growth Reduction % (vs. Control) [3]: 40%
- [8-HOA] [3]: 0.05 µg/g
- Tumor Growth Reduction % (vs. Control) ([3]; listed as Iminodibenzly): 40%
- [PGE2] in tumors after 4-week treatment ([3]; A549 tumor, 15 mg/kg every day, vehicle control 2.0 μg/g): 1.5 µg/g
- [AA] in tumors after 4-week treatment ([3]; A549 tumor, 15 mg/kg every day, vehicle control 3.7 μg/g): 2.5 µg/g
- Cell Survival Rate ([7]; 10 μM): 66%
- Cell Survival Rate ([7]; 10 μM, listed as iminodibenyl): 66%
- viability at 10 µM ([7]; Homo sapiens, HCA-7, 48 h, read-out: cell viability): ~66%
- Cell Survival Rate [8]: 73%
- Cell Survival Rate ([8]; listed as iminodibenyl): 73%
- [8-HOA] [9]: 0.53 µM
- Primary Tumor size (mm^3) ([4]; Day 14, vehicle 128): 87 mm^3
- Primary Tumor size (mm^3) ([4]; Day 21, vehicle 916): 476 mm^3
- Lung tumor(s) per mouse ([4]; Day 21, metastatic lung tumors, 1 mouse, vehicle 4): 0
- Primary Tumor size (mm^3) ([4]; Day 28, vehicle 2956): 1153 mm^3
- 8-HOA (μM) in Blood ([4]; Day 28): 0.021 µM
- Reduced Tumor Growth vs. V.C. ([4]; Day 28, listed as Iminodibenzy, 15 mg/kg): 58%
- Reduced Tumor Growth vs. V.C. ([4]; Day 28, listed as iminodibenzyl, 15 mg/kg): 58%
- mice that developed metastatic lung tumor [4]: 1 of four mice
- Cell Survival Rate [10]: 22%
- Cell Survival Rate ([10]; listed as iminodibenyl): 22%
- [8-HOA] [11]: 0.83 µM
- [PGE2] in tumors after 4-week treatment ([5]; 15 mg/kg every day, vehicle control 2.0 μg/g): 1.6 µg/g
- [AA] in tumors after 4-week treatment ([5]; 15 mg/kg every day, vehicle control 3.5 μg/g): 2.2 µg/g
- Tumor Growth Reduction % (vs. Control) [5, 12]: 17%
- [8-HOA] [5, 12]: 0.07 µg/g
- Tumor Growth Reduction % (vs. Control) ([5]; every day, 4-week, DGLA 5 mg/mouse oral, iminodibenzyl 15 mg/kg i.p., listed as Iminodibenzly): 17%
- [8-HOA] (HCA-7 cells) [1]: 0.65 µM
- [8-HOA] (HCA-7 cells) ([1]; listed as iminodibenzyl): > 0.5 µM and 0.65 µM
- IC50 [2, 13]: 104 nM

Structure (SMILES): C1=Cc2ccccc2Nc2ccccc21 [Iminostilbene, 5H-dibenz[b,f]azepine]
- suppression of cancer cell growth ([7]; 10 μM, colon cancer cells): unable to suppress cancer cell growth
- [8-HOA] (HCA-7 cells) [1]: did not promote 8-HOA formation

Structure (SMILES): O=c1[nH]cc(F)c(=O)[nH]1 [Molecule 5-FU, 5-fluorouracil, reference compound]
- Tumor Growth Reduction % (vs. Control) ([5]; twice/week up to 4-week, 5-FU 30 mg/kg, DGLA 8 mg/mouse, iminodibenzyl 25 mg/kg): 29%

Structure (SMILES): c1cc2c(cc1[C@H]1OC[C@H]3[C@@H]1CO[C@@H]3c1ccc3c(c1)OCO3)OCO2 [Sesame, sesamin, reference compound]
- [8-HOA] (HCA-7 cells) [1]: 0.33 µM
- IC50 [2, 13]: 346 nM
